Experimental findings from US4977189A, “Substituted guanidinedicarbonyl derivatives” (American Cyanamid Company, priority 1988, dated 1990) are described below.

In test [1] the test system is Brain-Specific Receptors (3H-benzodiazepine binding). Put plainly: Inhibition of the Binding of 3H-Benzodiazepine to Brain-Specific Receptors of Rats. Also noted: species or system rat (male albino, Wistar strain; whole cortex). The note with it: 3H-diazepam (1.5 nM) or 3H-flunitrazepam (1.0 nM); rat cortex P2-fraction; 30 minutes in ice; test concentration not given. The text has this: A test utilized for the determination of anxiolytic activity is the measurement of the ability of test compounds to inhibit the binding of tritiated benzodiazepines to brain-specific recptors of warm-blooded animals. A modification of the method described by R. F. Squires, et al., Nature, 266, No. 21, pg 732 (April, 1977) and H. Mohler, et al., Science, 198, pg 849 (1977) was employed.
Male albino rats (Wistar strain, weighing 150-200 g each) were used. The test compounds were solubilized in either dimethylformamide, acetic acid, ethanol or hydrochloric acid.
Whole cortex of rats was homogenized gently in 20 volumes of ice-cold 0.32M sucrose, centrifuged twice at 1000 g for 10 minutes and then recentrifuged at 30,000 g for 20 minutes to produce a crude P2 -synaptosomal fraction. The P2 -fraction was either: (1) resuspended in twice the original volume in hypotonic 50 mM Tris.HCl (pH 7.4), or (2) resuspended in one-half the original volume in hypotonic 10 mM Tris.HCl (pH 7.4) and frozen (-20° C.) until time of use. Frozen P2 preparations were thawed and resuspended in four times the original homogenizing volume at time of assay.
The binding assay consisted of 300 μl of the P2 -fraction suspension (0.2-0.4 mg protein), 100 μl of test drug and 100 μl of ^3 H-diazepam (1.5 nM, final concentration) or ^3 H-flunitrazepam (1.0 nM, final concentration) which was added to 1.5 ml of 50 mM Tris.HCl (pH 7.4). Non-specific binding controls and total binding controls d 100 μl of diazepam (3 μM final concentration) and 100 μl of deionized water, respectively, in place of the test compound. Incubation for 30 minutes proceeded in ice and was terminated by filtration, under vacuum, through glass fiber filters. The filters were washed twice with 5 ml of ice-cold 50 mM Tris.HCl (pH 7.4) and placed in scintillation vials. After drying at 50°-60° C. for 30 minutes, 10 ml of diluent was added and the radioactivity determined in a scintillation counter.
Inhibition of binding was calculated by the difference between total binding and binding in the presence of test compound, divided by the total binding, X 100.

Test [2] deals with Royal Hart mice. In words: Hypoxic Survival Test. Format: in vivo, mouse (Royal Hart). As to conditions: 10% oxygen; for responders at 50 mg/kg / responders at 100 mg/kg / responders at 10 mg/kg / responders at 200 mg/kg / responders at 25 mg/kg: Mus musculus, ip, 5 min, 30 minutes prior, survival after 5 minutes, read-out: % Survivors; for responders at 50 mg/kg: 50 mg/kg intraperitoneally; for responders at 100 mg/kg: 100 mg/kg intraperitoneally; for responders at 10 mg/kg: 10 mg/kg intraperitoneally; for responders at 200 mg/kg: 200 mg/kg intraperitoneally; for responders at 25 mg/kg: 25 mg/kg intraperitoneally. As to the method: A useful in vivo test that measures how effectively central nervous system-acting drugs enhance survival in a hypoxic environment, presumably by improving the ratio of energy supply to demand is known as the Hypoxic Survival Test. […] Drugs are tested by intraperitoneally injecting groups of mice 30 minutes prior to placing them in a hypoxic mixture and measuring survival. The rationale of this test is that drugs which enhance survival under hypoxic conditions without concomitant, depression or sedative side effects, may do so by enhancing energy metabolism, or by preserving normal brain function under conditions of reduced energy metabolism. Given the dependence of the brain on a constant supply of energy, drugs which have this property may have many far-reaching therapeutic indications, including recovery from stroke and closed head injury, as well as reducing the deleterious effects of the aging central nervous system.
Groups of 20 Royal Hart mice (6 weeks of age) are injected intraperitoneally with test compound (1-200 mg/kg) 30 minutes prior to placing them in a hypoxic mixture (10% oxygen in 90% […]) and measuring survival after 5 minutes.
A separate group of 20 mice is injected intraperitoneally with saline solution (0.01 cc/g of body weight) and processed as described above.
Still another group of 20 mice is injected intraperitoneally with 0.125 mg/kg of physostigmine and processed as described above.

Regarding `CN(C)C(=O)c1ccc(NC(=NC(=O)c2ccccc2)NC(=O)c2ccccc2)cc1` [4-[[(Benzoylamino)(benzoylimino)methyl]amino]-N,N-dimethylbenzamide], the “% Inhibition” value in test [1] amounted to 14%.

Consider `Cc1cccc(C(=O)NC(=Nc2ccc(C(=O)N(C)C)cc2)NC(=O)c2cccc(C)c2)c1` [4-[[Bis[(3-methylbenzoyl)amino]methylene]amino]-N,N-dimethylbenzamide], for which the “% Inhibition” value in test [1] was 29%.

For `Cc1cccc(C(=O)N=C(NC(=O)c2cccc(C)c2)Nc2ccccc2C(N)=O)c1` [N,N'-[[2-(Aminocarbonyl)phenyl]carbonimidoyl]bis[3-methylbenzamide]], in test [2], the responders at 50 mg/kg was found to be 40% and the responders at 100 mg/kg stood at 48%.

For the molecule `CCN(CC)CCNC(=NC(=O)c1ccc(C(F)(F)F)cc1)NC(=O)c1ccc(C(F)(F)F)cc1` [N,N'-[[2-(Diethylaminoethyl]carbonimidoyl]bis[4-(trifluoromethyl)benzamide], in test [2], the responders at 10 mg/kg was 45%, the responders at 50 mg/kg was 70%, the responders at 100 mg/kg came to 65% and the responders at 200 mg/kg came out at 85%.

For the molecule `Cc1cccc(C(=O)N=C(NC(=O)c2cccc(C)c2)Nc2cccc(C(N)=O)c2)c1` [N,N'-[[3-(Aminocarbonyl)phenyl]carbonimidoyl]bis[3-methylbenzamide]], in test [1], the “% Inhibition” value was 17%. In the case of `COc1ccc(C(=O)N=C(NC(=O)c2ccc(OC)cc2)Nc2ccc(C(N)=O)cc2)cc1` [N,N'-[[4-(Aminocarbonyl)phenyl]carbonimidoyl]bis[4-methoxybenzamide]], in test [1], the “% Inhibition” value amounted to 17%. As for `CCCCCCCCNC(=O)c1ccc(NC(=NC(=O)c2cccc(C)c2)NC(=O)c2cccc(C)c2)cc1` [N,N'-[[4-(Octylamino)carbonyl]phenyl]carbonimidoyl]bis[3-methylbenzamide]], the “% Inhibition” value in test [1] was determined as 16%. On to `NS(=O)(=O)c1ccc(CNC(=NC(=O)c2ccccc2)NC(=O)c2ccccc2)cc1` [N,N'-[[[4-(Aminosulfonyl)phenyl]methyl]carbonimidoyl]bisbenzamide], for which, in test [2], the responders at 10 mg/kg was found to be 50% and the responders at 100 mg/kg was 35%.

Turning to `CNC(=O)c1ccc(NC(=NC(=O)c2cccc(C)c2)NC(=O)c2cccc(C)c2)cc1` [N,N'[[4-[(Methylamino)carbonyl]phenyl]carbonimidoyl]bis[3-methylbenzamide]], the “% Inhibition” value in test [1] was 17%. Turning to `COc1ccc(C(=O)NC(=NC(=O)c2ccc(C)cc2)Nc2ccccc2C(N)=O)cc1` [N-[[[2-(Aminocarbonyl)phenyl]amino][(4-methoxybenzoyl)amino]methylene]-4-methylbenzamide], the “% Inhibition” value in test [1] was 10%.

Consider `Cc1cccc(C(=O)N=C(NC(=O)c2ccccc2)Nc2cccc(C(N)=O)c2)c1` [N-[[[3-(Aminocarbonyl)phenyl]amino](benzoylamino)methylene]-3-methylbenzamide], for which, in test [1], the “% Inhibition” value is 15%. As for `COc1ccc(C(=O)NC(=NC(=O)c2ccc(C)cc2)Nc2cccc(C(N)=O)c2)cc1` [N-[[[3-(Aminocarbonyl)phenyl]amino][(4-methoxybenzoyl)amino]methylene]-4-methylbenzamide], the “% Inhibition” value in test [1] came out at 12%. Take `NC(=O)c1ccc(NC(=NC(=O)c2cccs2)NC(=O)c2ccccc2)cc1` [N-[[[4-(Aminocarbonyl)phenyl]amino](benzoylamino)methylene]-2-thiophenecarboxamide]: in test [2], the responders at 10 mg/kg was 50% and the responders at 50 mg/kg was determined as 50%. With `COc1cc(C(=O)N=C(NC(=O)c2ccccc2)Nc2ccc(C(N)=O)cc2)cc(OC)c1OC` [N-[[[4-(Aminocarbonyl)phenyl]amino](benzoylamino)methylene]-3,4,5-trimethoxybenzamide], in test [2], the responders at 10 mg/kg is 50% and the responders at 25 mg/kg amounted to 50%. Take `NC(=O)c1ccc(NC(=NC(=O)c2cccc(Br)c2)NC(=O)c2ccccc2)cc1` [N-[[[4-(Aminocarbonyl)phenyl]amino](benzoylamino)methylene]-3-bromobenzamide]: the responders at 10 mg/kg in test [2] was found to be 50%. `Cc1cccc(C(=O)N=C(NC(=O)c2ccccc2)Nc2ccc(C(N)=O)cc2)c1` [N-[[[4-(Aminocarbonyl)phenyl]amino](benzoylamino)methylene]-3-methylbenzamide]: in test [1], the “% Inhibition” value was 33%. As to `NC(=O)c1ccc(NC(=NC(=O)c2ccc(Br)cc2)NC(=O)c2ccccc2)cc1` [N-[[[4-(Aminocarbonyl)phenyl]amino](benzoylamino)methylene]-4-bromobenzamide], in test [2], the responders at 10 mg/kg is 42%, the responders at 25 mg/kg stood at 60% and the responders at 100 mg/kg amounted to 43%. For the molecule `NC(=O)c1ccc(NC(=NC(=O)c2ccccc2)NC(=O)C23CC4CC(CC(C4)C2)C3)cc1` [N-[[[4-(Aminocarbonyl)phenyl]amino](benzoylamino)methylene]tricyclo[3.3.1.1^3.7]decane-1-carboxamide], in test [2], the responders at 50 mg/kg came out at 42%. Take `COc1ccc(C(=O)N=C(NC(=O)c2ccc(C)cc2)Nc2ccc(C(N)=O)cc2)cc1` [N-[[[4-(Aminocarbonyl)phenyl]amino][4-methylbenzoyl)amino]methylene]-4-methoxybenzamide]: the responders at 100 mg/kg in test [2] came to 43%.

As to `NC(=O)c1ccc(NC(=NC(=O)c2ccccc2)NC(=O)C=Cc2ccccc2)cc1` [N-[[[4-(Aminocarbonyl)phenyl]amino][(1-oxo-3-phenyl-2-propenyl)amino]methylene]benzamide], the responders at 100 mg/kg in test [2] came to 40%.

Regarding `NC(=O)c1ccc(NC(=NC(=O)c2ccc(F)cc2)NC(=O)c2ccc(Br)cc2)cc1` [N-[[[4-(Aminocarbonyl)phenyl]amino][(4-bromobenzoyl)amino]methylene]-4-fluorobenzamide], in test [2], the responders at 25 mg/kg came to 40% and the responders at 100 mg/kg amounted to 44%. For `COc1ccc(C(=O)N=C(NC(=O)c2ccc(F)cc2)Nc2ccc(C(N)=O)cc2)cc1` [N-[[[4-(Aminocarbonyl)phenyl]amino][(4-fluorobenzoyl)amino]methylene]-4-methoxybenzamide], in test [2], the responders at 25 mg/kg turned out to be 45%, the responders at 50 mg/kg amounted to 60% and the responders at 100 mg/kg stood at 42%. `COc1ccc(C(=O)NC(=NC(=O)c2cccc(C)c2)Nc2ccc(C(N)=O)cc2)cc1` [N-[[[4-(Aminocarbonyl)phenyl]amino][(4-methoxybenzoyl)amino]methylene]-3-methylbenzamide]: in test [2], the responders at 10 mg/kg amounted to 50%, the responders at 50 mg/kg amounted to 45%, the responders at 100 mg/kg is 50% and the responders at 200 mg/kg amounted to 45%. For `COc1ccc(C(=O)NC(=NC(=O)c2ccc(C(F)(F)F)cc2)Nc2ccc(C(N)=O)cc2)cc1` [N-[[[4-(Aminocarbonyl)phenyl]amino][(4-methoxybenzoyl)amino]methylene]-4-(trifluoromethyl)benzamide], in test [2], the responders at 50 mg/kg is 55% and the responders at 100 mg/kg came out at 47%. Take `NC(=O)c1ccc(NC(=NC(=O)c2ccc(C(F)(F)F)cc2)NC(=O)c2ccccc2)cc1` [N-[[[4-(Aminocarbonyl)phenyl]amino][benzoylamino]methylene]-4-(trifluoromethyl)benzamide]: the responders at 50 mg/kg in test [2] stood at 45%. In the case of `CNC(=O)Oc1ccc2c(c1)[C@]1(C)CCN(C)[C@@H]1N2C` [physostigmine, reference compound], the “physostigmine treated mice that survive” value in test [2] (0.125 mg/kg intraperitoneally, after 5 minutes, saline control mice 5-20%) is 60-80%.

For orientation: % Inhibition means the share of the control response that was lost under treatment.
